From patent US12570648B2, “6,7-dihydro-5H-pyrido[2,3-c]pyridazine derivatives and related compounds as Bcl-xL protein inhibitors and pro-apoptotic agents for treating cancer” (LES LABORATOIRES SERVIER, priority 2019, dated 2026)
One block for each compound: values may come before it.

What was measured:
[1] = tested on: lymphoid malignancies; details: clinical studies; cited from earlier work
[2] = tested on: T-ALL patient derived xenograft models; details: cited from earlier work
[3] = tested on: Molt-4; details: xenograft model Molt-4; cited from earlier work
[4] = tested on: pre-clinical models of T-ALL and different types of solid tumors; details: cited from earlier work
[5] = tested on: MOLT-4 xenografts; assay: Tumor regression study in MOLT-4 xenografts; assay type: in vivo, female NOD SCID mice; details: 5 mg/kg IV
Method: The in vivo therapeutic and pharmacodynamic effects of Bcl-xL-targeting small molecules were determined in MOLT-4 T-cell Acute Lymphoblastic Leukemia (T-ALL) model upon intravenous (IV) or oral (PO) administration.
MOLT-4 cells (ATCC No. CRL-1582) were cultured in RPMI supplemented with 10% FBS. Cells were re-suspended in 50% matrigel (BD Biosciences) and 0.1 mL containing 5×10^6 cells was subcutaneously inoculated into the right flank of female NOD SCID mice (Charles River). For efficacy studies, when tumors reached the appropriate volume, mice were randomized (7 animals per group) using Easy stat software. […] Mice body weight was monitored three times a week and tumor size was measured using electronic calipers. Tumor volume was estimated by measuring the minimum and maximum tumor diameters using the formula: (minimum diameter)^2(maximum diameter)/2. The last day with at least half of control animals still present in the study (day 31), tumor growth inhibition was calculated using the formula: […]
Response was evaluated as follows: CR (Complete Response) if tumor size was <25 mm^3 for at least three consecutive measurements, PR (Partial Response) if tumor size was comprised between 25 mm^3 and half of the starting size for at least three consecutive measurements. Mice were sacrificed at the first measurement for which tumor volume exceeded 2000 mm^3 or at the first signs of animal health deterioration.

[6] = tested on: H146 cells; assay: H146 cell viability using MTT assay; assay type: cell-based; details: Homo sapiens, NCI-H146, 48 h exposure
Procedure, shortened: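 Cells were cultured in RPMI 1640 with 10% heat-inactivated FBS, penicillin/streptomycin and 2 mM L-glutamine, then exposed 48 h to 9 concentrations (3.16-fold series, triplicates). MTT was added for 4 h and formazan solubilised overnight in SDS/HCl. OD was read at 540 nm and IC50 fitted with four-parameter curves.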

[7] = biological target: GST(1-218)-(FACTOR_XA)-hsBCLXL(2-209) (Homo sapiens (Human), UniProt Q07817); assay: Fluorescence polarisation assay; assay type: binding
Method: Fluorescence polarization measures the rotation of a fluorescing species in solution, the larger the molecule the more polarized the fluorescence emission.
(GST UniProtKB® primary accession number P08515 and BCLXL UniProtKB® primary accession number Q07817-1), • resulting in an increase in anisotropy. If a compound is added which competitively binds to the same site as the probe, thereby releasing it, anisotropy decreases due to the increased amount of free probe.
An 11-point serial dilution of each compound was prepared in DMSO, the final buffer conditions were 10 mM 4-(2-hydroxyethyl)-1-piperazineethanesulfonic acid [HEPES], 150 mM NaCl, 0.05% Tween 20, pH 7.4 and 5% DMSO. The final protein concentration in the assay was 20 nM with the fluorescent probe present at 10 nM. […] 1; 37 (WebServer issue): W441-W445.

[8] = biological target: His-His-(EK)-hsBCLXL(2-197)[N197C] (Homo sapiens (Human), UniProt Q07817, N197C); assay: Fluorescence quenching assay; assay type: binding; details: 1 nM Cy5-labelled protein, 400 nM PUMA peptide, 2 hours at 23° C.; KI determined from IC50
Procedure, shortened: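 Cy5-labelled BCL-xL (1 nM) with TQ5WS quencher-labelled PUMA peptide (400 nM); displacement by compound (11-point dilution) raises fluorescence. Buffer 10 mM HEPES, 150 mM NaCl, 0.05% Tween 20, pH 7.4, 5% DMSO; 2 h at 23° C, Ex 620/Em 680 nm. Ki derived from IC50.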

[9] = tested on: circulating platelets; assay: Pharmacodynamics: circulating platelets in MOLT-4-grafted mice; assay type: in vivo, female NOD SCID mice; details: after treatment discontinuation (data not shown)
Method: For pharmacodynamics studies, when tumors reached the appropriate volume, mice were randomized (3 animals per group) using Easy stat software. […] Tumor samples were collected 6 h after dosing and lysed (10 mM HEPES pH 7.4, 142.5 mM KCl, 5 mM MgCl2, 1 mM EDTA, 1% NP40, protease and phosphatase inhibitors cocktails—Calbiochem). Cleared lysates were prepared for immunodetection of cleaved PARP and Caspase 3 by using the MSD apoptosis panel whole cell lysate kit (MSD) in 96-well plates according to manufacturer's instructions, and were analyzed on the QuickPlex SQ 120. Whole blood samples were analyzed on the Hematology Analyzer Coulter Ac⋅T diff (Beckman Coulter).

[10] = tested on: lymphocyte proliferation; details: in vitro; cited from earlier work
[11] = tested on: animal models of arthritis and lupus; details: mice; cited from earlier work
[12] = tested on: allogeneic T-cell; details: in vitro; cited from earlier work

Chain of GST(1-218)-(FACTOR_XA)-hsBCLXL(2-209) (Q07817 other isoform, or with tags, fused parts or gaps): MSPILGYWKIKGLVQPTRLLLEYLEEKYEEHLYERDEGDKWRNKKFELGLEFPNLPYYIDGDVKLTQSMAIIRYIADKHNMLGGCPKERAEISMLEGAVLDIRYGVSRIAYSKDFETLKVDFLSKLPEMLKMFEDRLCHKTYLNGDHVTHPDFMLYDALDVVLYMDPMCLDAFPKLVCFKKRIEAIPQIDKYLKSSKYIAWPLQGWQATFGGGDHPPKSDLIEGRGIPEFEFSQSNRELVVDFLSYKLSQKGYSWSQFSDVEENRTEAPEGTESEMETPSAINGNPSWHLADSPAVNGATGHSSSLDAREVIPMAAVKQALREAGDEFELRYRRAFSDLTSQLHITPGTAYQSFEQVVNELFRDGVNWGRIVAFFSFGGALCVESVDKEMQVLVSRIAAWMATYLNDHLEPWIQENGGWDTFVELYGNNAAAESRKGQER
Chain of His-His-(EK)-hsBCLXL(2-197)[N197C] (Q07817 2-197 N197C): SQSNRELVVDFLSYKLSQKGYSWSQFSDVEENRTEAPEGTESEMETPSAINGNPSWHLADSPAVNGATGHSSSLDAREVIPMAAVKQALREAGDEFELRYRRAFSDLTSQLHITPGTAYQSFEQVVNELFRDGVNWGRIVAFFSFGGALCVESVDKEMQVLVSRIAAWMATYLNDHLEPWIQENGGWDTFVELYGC

Compound: CC1(C)CCC(c2ccc(Cl)cc2)=C(CN2CCN(c3ccc(C(=O)NS(=O)(=O)c4ccc(N[C@H](CCN5CCOCC5)CSc5ccccc5)c(S(=O)(=O)C(F)(F)F)c4)cc3)CC2)C1 [ABT-263]
antitumor activity [1]: objective antitumor activity | activity [2]: promising activity

Compound: Cc1c(-c2ccc(N3CCc4cccc(C(=O)Nc5nc6ccccc6s5)c4C3)nc2C(=O)O)cnn1CC12CC3CC(CC(C3)C1)C2 [Example A-1331852]
in vitro and in vivo activity [3]: in vitro and in vivo activity | in vivo activity [4]: exhibited in vivo activity

IC50 [6]: 32.7 nM | Ki [7]: < 1 nM | Ki [8]: 0.008 nM
Compound: Cc1c(Nc2nc3ccccc3s2)nnc2c1CCCN2c1ccc(-c2cnn(CC34CC5CC(CC(C5)C3)C4)c2C)c(C(=O)O)n1 [Example 24]
% CR ([5]; Q3D6): 0% | % PR ([5]; Q3D6): 71.4% | % TGI (d31) ([5]; Q3D6, day 31): 78.7% | platelets loss recovery [9]: platelets loss was recovered after treatment discontinuation

Compound: CN(C)CC[C@H](CSc1ccccc1)Nc1ccc(S(=O)(=O)NC(=O)c2ccc(N3CCN(Cc4ccccc4-c4ccc(Cl)cc4)CC3)cc2)cc1[N+](=O)[O-] [ABT-737]
lymphocyte proliferation [10]: potent inhibition of lymphocyte proliferation | disease severity [11]: significant decrease in disease severity | activity [2]: promising activity | allogeneic T-cell activation, proliferation, and cytotoxicity [12]: prevented allogeneic T-cell activation, proliferation, and cytotoxicity
